Data as given in patent US8076352B2, “Administration of carboline derivatives useful in the treatment of cancer and other diseases” (PTC Therapeutics, Inc., priority 2004, dated 2011).

System: hypoxia-inducible endogenous VEGF expression in HeLa cells
Test: Hypoxia-inducible endogenous VEGF expression, VEGF ELISA of conditioned media (dose-response EC50)
Type: cell-based
Settings: HeLa cells, hypoxic conditions (1% O2)
Method in brief: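 Secreted VEGF was quantified by ELISA against a per-assay standard curve after HeLa cells spent 24-48 h in 1% O2, 5% CO2, N2 balance with or without compound. Across a series of, e.g., seven concentrations, percentage inhibition (max 100%, min 0%) gave EC50 and CC50 values.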

SMILES	EC50 (Homo sapiens) [nM]	EC50 [nM]
CCOC(=O)N1CCc2c([nH]c3ccc(Cl)cc23)C1c1cnc(NC)nc1 (stereo not shown) [Compound 506]	40 to 200	–
CCOC(=O)N1CCc2c([nH]c3ccc(Cl)cc23)C1CC(C)c1ccccc1 (stereo not shown) [Compound 508]	40 to 200	–
CCOC(=O)N1CCc2c([nH]c3ccc(Cl)cc23)C1c1ccc(C(=O)NCCN2CCOCC2)cc1 (stereo not shown) [Compound 509]	40 to 200	–
CCCC1c2[nH]c3ccc(Cl)cc3c2CCN1C(=O)OCC (stereo not shown) [Compound 510]	40 to 200	–
CCOC(=O)N1CCc2c([nH]c3ccc(Cl)cc23)C1CCc1ccccc1 (stereo not shown) [Compound 511]	40 to 200	–
CCOC(=O)N1CCc2c([nH]c3ccc(Cl)cc23)C1c1ccc(C(=O)NCCCN2CCCC2=O)cc1 (stereo not shown) [Compound 512]	40 to 200	–
CCOC(=O)N1CCc2c([nH]c3ccc(Cl)cc23)C1c1ccsc1 (stereo not shown) [Compound 513]	40 to 200	–
CCOC(=O)N1CCc2c([nH]c3ccc(Cl)cc23)C1c1ccc(C(=O)N2CCCN(C)CC2)cc1 (stereo not shown) [Compound 514]	40 to 200	–
CCCCCCC1c2[nH]c3ccc(Cl)cc3c2CCN1C(=O)OCC (stereo not shown) [Compound 515]	200 to 1000	–
CCOC(=O)N1CCc2c([nH]c3ccc(Br)cc23)C1c1ccc(C(=O)N(C)CCN(C)C)cc1 (stereo not shown) [Compound 516]	200 to 1000	–
CNc1ncc(C2c3[nH]c4ccc(Cl)cc4c3CCN2C(=O)Oc2ccc(OC)cc2)cn1 (stereo not shown) [Compound 517]	200 to 1000	–
CCOC(=O)N1CCc2c([nH]c3ccc(Cl)cc23)C1c1ccc(C(=O)N(C)CCc2ccccn2)cc1 (stereo not shown) [Compound 518]	200 to 1000	–
O=C(O)c1ccc(C2c3[nH]c4ccc(Br)cc4c3CCN2C(=O)Oc2ccc(Cl)cc2)cc1 (stereo not shown) [Compound 519]	200 to 1000	–
CCOC(=O)N1CCc2c([nH]c3ccc(Cl)cc23)C1c1cccc(C(=O)N(C)C)c1 (stereo not shown) [Compound 520]	200 to 1000	–
CCOC(=O)N1CCc2c([nH]c3ccc(Cl)cc23)C1c1ccc(C(=O)NCCC2CCCN2C)cc1 (stereo not shown) [Compound 521]	200 to 1000	–
CCOC(=O)N1CCc2c([nH]c3ccc(Cl)cc23)C1C(C)Cc1ccc(C(C)C)cc1 (stereo not shown) [Compound 523]	200 to 1000	–
CCOC(=O)N1CCc2c([nH]c3ccc(Cl)cc23)C1c1cccc(C(=O)NC)c1 (stereo not shown) [Compound 524]	200 to 1000	–
CCOC(=O)N1CCc2c([nH]c3ccc(Cl)cc23)C1c1cccc(C(=O)N2CCN(CC)CC2)c1 (stereo not shown) [Compound 525]	200 to 1000	–
CCOC(=O)N1CCc2c([nH]c3ccc(Cl)cc23)C1c1ccc(C(=O)N2CCC(N3CCCC3)CC2)cc1 (stereo not shown) [Compound 527]	200 to 1000	–
CCOC(=O)N1CCc2c([nH]c3ccc(Cl)cc23)C1C(C)Cc1ccc(C(C)(C)C)cc1 (stereo not shown) [Compound 528]	200 to 1000	–
CCOC(=O)N1CCc2c([nH]c3ccc(Cl)cc23)C1c1cccc(C(=O)N2CCN(C)CC2)c1 (stereo not shown) [Compound 529]	200 to 1000	–
CCOC(=O)N1CCc2c([nH]c3ccc(Cl)cc23)C1c1ccc(C(=O)N2CCC(N3CCCCC3)CC2)cc1 (stereo not shown) [Compound 531]	200 to 1000	–
CC(CC1NCCc2c1[nH]c1ccc(Cl)cc21)c1ccccc1 (stereo not shown) [Compound 532]	200 to 1000	–

SMILES	EC50 (Homo sapiens) [nM]	EC50 [nM]
CCOC(=O)N1CCc2c([nH]c3ccc(Cl)cc23)C1c1ccc(C(=O)NCCCn2ccnc2)cc1 (stereo not shown) [Compound 533]	200 to 1000	–
CCOC(=O)N1CCc2c([nH]c3ccc(Cl)cc23)C1c1ccc(C(=O)NCCCN2CCOCC2)cc1 (stereo not shown) [Compound 534]	200 to 1000	–
CCOC(=O)N1CCc2c([nH]c3ccc(Br)cc23)C1c1ccc(CNCCN2CCOCC2)cc1 (stereo not shown) [Compound 535]	200 to 1000	–
CCOC(=O)N1CCc2c([nH]c3ccc(Br)cc23)C1c1ccc(CN2CCCN(C)CC2)cc1 (stereo not shown) [Compound 541]	200 to 1000	–
CCOC(=O)N1CCc2c([nH]c3ccc(Cl)cc23)C1c1ccc(C(N)=O)cc1 (stereo not shown) [Compound 542]	200 to 1000	–
O=C1NC2CSC(CCCCC(=O)OCCOc3ccc(C4c5[nH]c6ccc(Cl)cc6c5CCN4C(=O)Oc4ccc(Cl)cc4)cc3)C2N1 (stereo not shown) [Compound 544]	< 8	–
CCOC(=O)N1CCc2c([nH]c3ccc(Cl)cc23)C1C(C)CC (stereo not shown) [Compound 547]	200 to 1000	–
CCOC(=O)N1CCc2c([nH]c3ccc(Cl)cc23)C1c1cccc(C(=O)NCCN2CCOCC2)c1 (stereo not shown) [Compound 552]	200 to 1000	–
CCOC(=O)N1CCc2c([nH]c3ccc(Cl)cc23)C1C(C)Cc1ccc2c(c1)OCO2 (stereo not shown) [Compound 553]	200 to 1000	–
CCOC(=O)N1CCc2c([nH]c3ccc(Cl)cc23)C1c1cccc(C(=O)NCCOC)c1 (stereo not shown) [Compound 556]	200 to 1000	–
CCOC(=O)N1CCc2c([nH]c3ccc(Cl)cc23)C1c1ccc(C(=O)N(C)CCCN(C)C)cc1 (stereo not shown) [Compound 558]	200 to 1000	–
CCC(Br)C(=O)N1CCc2c([nH]c3ccc(Cl)cc23)C1c1ccc(OC)cc1 (stereo not shown) [Compound 559]	200 to 1000	–
CCOC(=O)N1CCc2c([nH]c3ccc(Br)cc23)C1c1ccc(C(=O)N2CCN(CCCN(C)C)CC2)cc1 (stereo not shown) [Compound 560]	> 1000	–
CCOC(=O)N1CCc2c([nH]c3ccc(Cl)cc23)C1c1ccc(C(=O)N2CCC(NC(C)=O)C2)cc1 (stereo not shown) [Compound 561]	> 1000	–
CCOC(=O)N1CCc2c([nH]c3ccc(Cl)cc23)C1c1cccc(C(=O)N2CCN(CCOC)CC2)c1 (stereo not shown) [Compound 562]	> 1000	–
CCOC(=O)N1CCc2c([nH]c3ccc(Cl)cc23)C1c1ccc(C(=O)N(C)CCN(C)C)cc1 (stereo not shown) [Compound 563]	> 1000	–
CC(C)(C)CC1NCCc2c1[nH]c1ccc(Cl)cc21 (stereo not shown) [Compound 565]	> 1000	–
CCOC(=O)N1CCc2c([nH]c3ccc(Cl)cc23)C1c1cccc(CN2CCN(CCOC)CC2)c1 (stereo not shown) [Compound 567]	> 1000	–
CSC(C)CC1NCCc2c1[nH]c1ccc(Cl)cc21 (stereo not shown) [Compound 568]	> 1000	–
O=C(Oc1ccc(Cl)cc1)N1CCc2c([nH]c3ccc(Br)cc23)C1c1ccc(C(F)(F)F)cc1 (stereo not shown) [Compound 570]	–	< 8
O=C(Oc1ccc(Cl)cc1)N1CCc2c([nH]c3ccc(Cl)cc23)C1c1ccc(OCCO)cc1 (stereo not shown) [Compound 571]	200 to 1000	–
CC(C)c1ccc(C2c3[nH]c4ccc(Br)cc4c3CCN2C(=O)Oc2ccc(Cl)cc2)cc1 (stereo not shown) [Compound 572]	–	< 8
O=C(Oc1ccc(F)cc1)N1CCc2c([nH]c3ccc(Cl)cc23)C1c1ccc(O)cc1 (stereo not shown) [Compound 575]	200 to 1000	–

SMILES	EC50 (Homo sapiens) [nM]	EC50 [nM]
O=C(Oc1ccc(F)cc1)Oc1ccc(C2c3[nH]c4ccc(Cl)cc4c3CCN2C(=O)Oc2ccc(F)cc2)cc1 (stereo not shown) [Compound 576]	40 to 200	–
O=C(Oc1ccc(Cl)cc1)N1CCc2c([nH]c3ccc(Cl)cc23)C1c1ccc(O)cc1 (stereo not shown) [Compound 577]	40 to 200	–
O=C(Oc1ccc(Cl)cc1)Oc1ccc(C2c3[nH]c4ccc(Cl)cc4c3CCN2C(=O)Oc2ccc(Cl)cc2)cc1 (stereo not shown) [Compound 578]	40 to 200	–
COC(=O)c1ccc(C2c3[nH]c4ccc(Cl)cc4c3CCN2C(=O)Oc2ccc(F)cc2)cc1 (stereo not shown) [Compound 579]	–	< 8
COC(=O)c1ccc(C2c3[nH]c4ccc(Cl)cc4c3CCN2C(=O)Oc2ccc(Cl)cc2)cc1 (stereo not shown) [Compound 580]	< 8	–
O=C(O)c1ccc(C2c3[nH]c4ccc(Cl)cc4c3CCN2C(=O)Oc2ccc(F)cc2)cc1 (stereo not shown) [Compound 581]	> 1000	–
COc1ccc(C2c3[nH]c4ccc(Cl)cc4c3CCN2C(=O)Oc2ccccc2Cl)cc1 (stereo not shown) [Compound 587]	40 to 200	–
O=C(Oc1ccccc1Cl)N1CCc2c([nH]c3ccc(Cl)cc23)C1c1ccc(F)cc1 (stereo not shown) [Compound 588]	40 to 200	–
O=C(Oc1ccccc1Cl)N1CCc2c([nH]c3ccc(Cl)cc23)C1c1ccc(Cl)cc1 (stereo not shown) [Compound 589]	40 to 200	–
COC(=O)c1ccc(C2c3[nH]c4ccc(Cl)cc4c3CCN2C(=O)Oc2ccccc2Cl)cc1 (stereo not shown) [Compound 590]	8 to 40	–
COC(=O)c1ccc(C2c3[nH]c4ccc(Br)cc4c3CCN2C(=O)Oc2ccc(Cl)cc2)cc1 (stereo not shown) [Compound 591]	< 8	–
COC(=O)c1ccc(C2c3[nH]c4ccc(Br)cc4c3CCN2C(=O)Oc2ccc(F)cc2)cc1 (stereo not shown) [Compound 592]	< 8	–
COC(=O)c1ccc(C2c3[nH]c4ccc(Br)cc4c3CCN2C(=O)Oc2ccccc2Cl)cc1 (stereo not shown) [Compound 593]	8 to 40	–
O=C(Oc1ccccc1Cl)N1CCc2c([nH]c3ccc(Cl)cc23)C1c1ccc(C(F)(F)F)cc1 (stereo not shown) [Compound 594]	40 to 200	–
COc1ccc(C2c3[nH]c4ccc(OC)cc4c3CCN2C(=O)Oc2ccc(Cl)cc2)cc1 (stereo not shown) [Compound 614]	200 to 1000	–
COc1ccc(C2c3[nH]c4ccc(OCc5ccccc5)cc4c3CCN2C(=O)Oc2ccc(Cl)cc2)cc1 (stereo not shown) [Compound 616]	200 to 1000	–
O=C(Oc1ccc(Cl)cc1)N1CCc2c([nH]c3ccc(Cl)cc23)C1c1ccc(OCCCI)cc1 (stereo not shown) [Compound 617]	8 to 40	–
O=C(Oc1ccccc1)N1CCc2c([nH]c3ccc(Cl)cc23)C1c1ccc(OCC(O)CO)cc1 (stereo not shown) [Compound 626]	8 to 40	–
O=C(Oc1ccc(F)cc1)N1CCc2c([nH]c3ccc(Cl)cc23)C1c1ccc(OCC(O)CO)cc1 (stereo not shown) [Compound 627]	< 8	–
O=C(Oc1ccccc1Cl)N1CCc2c([nH]c3ccc(Cl)cc23)C1c1ccc(OCC(O)CO)cc1 (stereo not shown) [Compound 628]	40 to 200	–
O=C(Oc1ccc(Cl)cc1)N1CCc2c([nH]c3ccc(Cl)cc23)C1c1ccc(OCC(O)CO)cc1 (stereo not shown) [Compound 629]	< 8	–
